In data set [1] the test system is Plasmodium berghei. Briefly: Antimalarial activity against Plasmodium berghei in Swiss mouse inoculated with parasite infected red blood cells assessed as mean survival time at 100 mg/kg/day, ip administered 4 hrs post infection on day 0, 1, 2 , 3. In kind it is functional.
In the next data set the test system is Mus musculus. Briefly: Toxicity in Swiss mouse inoculated with parasite infected red blood cells assessed as mortality at 100 mg/kg/day, ip administered 4 hrs post infection on day 0, 1, 2 , 3 measured on day 4. In kind it is organism-based. The settings on record: in vivo.
In data set [2] the test system is Plasmodium berghei. Briefly: Antimalarial activity against Plasmodium berghei in Swiss mouse inoculated with parasite infected red blood cells assessed as reduction in parasitemia at 100 mg/kg/day, ip administered 4 hrs post infection on day 0, 1, 2 , 3 measured on day 4 post infection by giemsa staining based microscopic method. Format: functional, organism-based.

A short description of data set [3]: Apparent permeability across apical to basolateral side in human Caco2 cells at 50 uM after 90 mins by LC-MS/MS method. Format: ADME, cell-based. As to conditions: Caco-2. In general terms: Passage across Caco-2 layers is used to estimate intestinal permeability.
A short description of data set [4]: Oral bioavailability in Sprague-Dawley rat at 10 mg/kg, administered via gavage. In kind it is ADME, organism-based. The settings on record: in vivo.
Data set [5] concerns Plasmodium berghei. Briefly: Antimalarial activity against Plasmodium berghei in Swiss mouse inoculated with parasite infected red blood cells assessed as reduction in parasitemia at 100 mg/kg/day, ip administered 4 hrs post infection on day 0, 1, 2 , 3 measured on day 7 post infection by giemsa staining based microscopic method. Format: functional, organism-based.

The source made the active and inactive calls. The rule behind the calls is not given here.

`N=C(N)/N=C(\N)SCc1cccc(CS/C(N)=N/C(=N)N)c1`: the MST in the data set with Plasmodium berghei [1] is 20 days.
On to `N=C(N=C(N)N)SCc1cccc(I)c1`, for which the Activity result in the data set with Mus musculus was “Toxic”. In the data set with Plasmodium berghei [2], the outcome was inactive.
Take `N=C(N)/N=C(\N)SCCCOc1c(Cl)cc(Cl)cc1Cl`: in the data set on Plasmodium berghei [1], the MST stood at 24 days.
Turning to `N=C(N)/N=C(\N)SCCOc1cccc(Br)c1`, the MST in the data set on Plasmodium berghei [1] stood at 25 days.
Consider `N=C(N)/N=C(\N)SCc1cccc(Cl)c1`, for which the Activity entry with Mus musculus is “Toxic”. Further, the outcome with Plasmodium berghei [2] was inactive.
As to `N=C(N)/N=C(\N)SCc1ccc(OCc2cccc(Br)c2)cc1`, in the data set on Mus musculus, the Activity entry is “Toxic”. For the same compound, the result in the data set on Plasmodium berghei [2] was inactive.
For `N=C(N)NC(=N)SCc1cccc([N+](=O)[O-])c1` the same measures were “Toxic” and “inactive”.
On to `N=C(N)NC(=N)SCc1cccc(C(F)(F)F)c1`, for which the Activity result in the data set on Mus musculus is recorded as “Toxic”. Also, the outcome with Plasmodium berghei [2] was inactive.
On to `CC1(C)N=C(N)N=C(N)N1OCCCOc1cc(Cl)c(Cl)cc1Cl`, for which, in data set [3], the apparent permeability from apical to basolateral (Papp A→B) at 1.5 h, 50 µM is under 0.12 ×10⁻⁶ cm/s. For the same compound, the bioavailability in data set [4] was under 1%.
As to `N#Cc1ccc(CS/C(N)=N/C(=N)N)cc1`, in the data set with Plasmodium berghei [2], the outcome was inactive.
`N=C(N)/N=C(\N)SCCCOc1ccc(I)cc1`: the MST with Plasmodium berghei [1] was 26 days.
On to `N=C(N)/N=C(\N)SCCOc1nc2ccccc2s1`, for which the result in the data set on Plasmodium berghei [5] was Active.
`Cc1ccc(CSC(=N)N=C(N)N)cc1`: the Activity result with Mus musculus was “Toxic”. Further, the result in the data set with Plasmodium berghei [2] was inactive.
As for `N#Cc1ccc(CSC(=N)NC(=N)N)cc1`, the Activity entry in the data set with Mus musculus is on record as “Toxic”.
For `N=C(N)/N=C(\N)SCCCOc1ccc(Cl)c(Cl)c1`, the MST in the data set with Plasmodium berghei [1] was found to be 24 days.
With `N=C(N)/N=C(\N)SCc1ccccc1C(F)(F)F`, the Activity entry in the data set with Mus musculus is listed as “Toxic”. In the data set on Plasmodium berghei [2], the result was inactive.
As for `N=C(N)/N=C(\N)SCc1ccccc1[N+](=O)[O-]`, the Activity entry in the data set with Mus musculus is reported as “Toxic”. The result with Plasmodium berghei [2] was inactive.
The like results for `N=C(N)/N=C(\N)SCc1ccc(F)cc1` were, in that order, “Toxic” and “inactive”.

What is called Papp A→B is how fast a substance crosses the layer from the apical side. Broadly, the bioavailability is the share of a dose that reaches the circulation, judged against a reference dose that is usually intravenous. A lower bioavailability goes with little systemic uptake.

The record behind these values is ChEMBL document CHEMBL4033669, “Guanylthiourea derivatives as potential antimalarial agents: Synthesis, in vivo and molecular modelling studies” (Eur J Med Chem, 2017).
